From US20250368687A1, “SHORT SYNTHETIC PEPTIDES AND USES THEREOF IN THE TREATMENT OF ENTEROVIRUS INFECTION” (CITY UNIVERSITY OF HONG KONG, priority 2024, published 2025) come the findings set out here.

For the experiment, the system named is EV-A71 IRES activity. The experiment in a line: Dual-luciferase IRES reporter assay in RD cells. In kind it is cell-based. The conditions noted are these: 2 μM for 2 h, RD cells co-transfected with 2Apro and pIRES reporter plasmids 24 h. As to the method: FIGS. 6A-6C Ser78 phosphorylation-deficient Hsp27 suppresses the viral IRES activity. (FIG. 6A) RD cells were pretreated with 2 μM SB203580 for 2 h, then co-transfected with a 2A^pro-expressing plasmid (200 ng) and pIRES reporter plasmid (200 ng) for 24 h, then the luciferase activity was measured. (FIG. 6B) HEK 293T cells were co-transfected with Hsp27 (WT, 3A, S15A, S78A, and S82A) plasmid (800 ng), pIRES reporter plasmid (200 ng) and 2A^pro-expressing plasmid (200 ng) for 24 h, then the luciferase activity was measured. (FIG. 6C) HEK 293T cells were co-transfected with Hsp27 (WT, 3A, S15A, S78A, 3D S15D, and S78D) plasmid (800 ng), pIRES reporter plasmid (200 ng) and 2A^C110A-expressing plasmid (200 ng) for 24 h, then the luciferase activity was measured. Statistical analyses were carried out using Student's t-test. *: p<0.05, **: p<0.01, ***: p<0.001. Data are expressed as mean ±SD.
HEK 293T cells were seeded in 24-wells, and then co-transfected with plasmids to simultaneously express 2A^pro (200 ng), pIRES reporter (200 ng), and the wild-type Hsp27 or its mutants (800 ng). […] The Renilla luciferase (RLuc) and Firefly luciferase (FLuc) activity were determined by using a dual-luciferase reporter assay (Promega) according to the manufacturer's instructions in a Lumat LB9507 bioluminometer. […]
A general note: Reporter assays use an easily measured gene product as a stand-in for the process of interest.

Take `C[S+]([O-])c1ccc(-c2nc(-c3ccncc3)c(-c3ccc(F)cc3)[nH]2)cc1` (stereo not shown) [SB203580, reference compound]: the “reduction of IRES activity” value came to 32%.
